Data: ChEMBL document CHEMBL1201862, “PubChem BioAssay data set” (2004)
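Cultured in 96-well plates, cells were exposed to test compound for 48 hours across five concentrations. Here, GI50 denotes the concentration required for 50% inhibition of growth.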 The source made the active and inactive calls. Rule as the data show it: active = GI50 up to about 1.1 µM and inactive = higher.

Key:
Assay in all cases: inhibition of tumour cell growth, NCI panel, 48 h
A549 = test system: A549
OVCAR-8 = test system: OVCAR-8
SK-OV-3 = test system: SK-OV-3
SK-MEL-5 = test system: SK-MEL-5
UACC-257 = test system: UACC-257
M14 = test system: M14
SR = test system: SR
UACC-62 = test system: UACC-62
KM12 = test system: KM12
HOP-18 = test system: HOP-18
MOLT-4 = test system: MOLT-4
SN12C = test system: SN12C
Malme-3M = test system: Malme-3M
COLO 205 = test system: COLO 205
OVCAR-3 = test system: OVCAR-3
NCI-H226 = test system: NCI-H226
SF-268 = test system: SF-268
SNB-19 = test system: SNB-19
RPMI-8226 = test system: RPMI-8226
OVCAR-4 = test system: OVCAR-4
K562 = test system: K562
M19-MEL = test system: M19-MEL
HCT-116 = test system: HCT-116
HL-60 = test system: HL-60
HOP-62 = test system: HOP-62
U-251 = test system: U-251
KM-20L2 = test system: KM-20L2
SF-295 = test system: SF-295
HT-29 = test system: HT-29
786-0 = test system: 786-0
SNB-75 = test system: SNB-75
SK-MEL-2 = test system: SK-MEL-2
OVCAR-5 = test system: OVCAR-5
UO-31 = test system: UO-31
A498 = test system: A498
HCT-15 = test system: HCT-15
NCI-H460 = test system: NCI-H460
HOP-92 = test system: HOP-92
TK-10 = test system: TK-10
LOX IMVI = test system: LOX IMVI
LXFL 529 = test system: LXFL 529
SK-MEL-28 = test system: SK-MEL-28
IGROV-1 = test system: IGROV-1
NCI-H522 = test system: NCI-H522
ACHN = test system: ACHN
SNB-78 = test system: SNB-78
CAKI-1 = test system: CAKI-1
NCI-H23 = test system: NCI-H23
DMS-114 = test system: DMS-114
SF-539 = test system: SF-539
SW-620 = test system: SW-620
CCRF-CEM = test system: CCRF-CEM
HCC 2998 = test system: HCC 2998
DLD-1 = test system: DLD-1

## O=C(Nc1c(O)[nH]c(=S)[nH]c1=O)c1ccco1
A549
  GI50: > 100 µM (inactive)
OVCAR-8
  GI50: > 100 µM (inactive)
SK-OV-3
  GI50: > 100 µM (inactive)
SK-MEL-5
  GI50: > 100 µM (inactive)
UACC-257
  GI50: > 100 µM (inactive)
M14
  GI50: > 100 µM (inactive)
SR
  GI50: > 100 µM (inactive)
UACC-62
  GI50: > 100 µM (inactive)
KM12
  GI50: > 100 µM (inactive)
HOP-18
  GI50: > 100 µM (inactive)
MOLT-4
  GI50: > 100 µM (inactive)
SN12C
  GI50: > 100 µM (inactive)
Malme-3M
  GI50: > 100 µM (inactive)
COLO 205
  GI50: > 100 µM (inactive)
OVCAR-3
  GI50: > 100 µM (inactive)
NCI-H226
  GI50: > 100 µM (inactive)
SF-268
  GI50: > 100 µM (inactive)
SNB-19
  GI50: > 100 µM (inactive)
RPMI-8226
  GI50: > 100 µM (inactive)
OVCAR-4
  GI50: > 100 µM (inactive)
K562
  GI50: > 100 µM (inactive)
M19-MEL
  GI50: > 100 µM (inactive)
HCT-116
  GI50: > 100 µM (inactive)
HL-60
  GI50: > 100 µM (inactive)
HOP-62
  GI50: > 100 µM (inactive)
U-251
  GI50: > 100 µM (inactive)
KM-20L2
  GI50: > 100 µM (inactive)
SF-295
  GI50: > 100 µM (inactive)
HT-29
  GI50: > 100 µM (inactive)
786-0
  GI50: > 100 µM (inactive)
SNB-75
  GI50: > 100 µM (inactive)
SK-MEL-2
  GI50: > 100 µM (inactive)
OVCAR-5
  GI50: > 100 µM (inactive)
UO-31
  GI50: > 100 µM (inactive)
A498
  GI50: > 100 µM (inactive)
HCT-15
  GI50: > 100 µM
NCI-H460
  GI50: > 100 µM (inactive)
HOP-92
  GI50: 38.9 µM (inactive)
TK-10
  GI50: > 100 µM (inactive)
LOX IMVI
  GI50: > 100 µM (inactive)
LXFL 529
  GI50: > 100 µM (inactive)
SK-MEL-28
  GI50: > 100 µM (inactive)
IGROV-1
  GI50: > 100 µM (inactive)
NCI-H522
  GI50: > 100 µM (inactive)
ACHN
  GI50: > 100 µM (inactive)
SNB-78
  GI50: > 100 µM (inactive)
CAKI-1
  GI50: > 100 µM (inactive)
NCI-H23
  GI50: > 100 µM (inactive)
DMS-114
  GI50: > 100 µM (inactive)
SF-539
  GI50: > 100 µM (inactive)
SW-620
  GI50: > 100 µM (inactive)
CCRF-CEM
  GI50: > 100 µM (inactive)

## CC(NC1CCCC[C@H]1O)c1ccccc1 (stereo partly drawn)
A549
  GI50: > 100 µM (inactive)
SK-OV-3
  GI50: > 100 µM (inactive)
SK-MEL-5
  GI50: > 100 µM (inactive)
UACC-257
  GI50: > 100 µM (inactive)
M14
  GI50: > 100 µM (inactive)
UACC-62
  GI50: > 100 µM (inactive)
HOP-18
  GI50: > 100 µM (inactive)
MOLT-4
  GI50: > 100 µM (inactive)
Malme-3M
  GI50: > 100 µM (inactive)
COLO 205
  GI50: > 100 µM (inactive)
NCI-H226
  GI50: > 100 µM (inactive)
SNB-19
  GI50: > 100 µM (inactive)
RPMI-8226
  GI50: > 100 µM (inactive)
OVCAR-4
  GI50: > 100 µM (inactive)
M19-MEL
  GI50: > 100 µM (inactive)
HCT-116
  GI50: > 100 µM (inactive)
HOP-62
  GI50: > 100 µM (inactive)
U-251
  GI50: > 100 µM (inactive)
KM-20L2
  GI50: > 100 µM (inactive)
HT-29
  GI50: > 100 µM (inactive)
786-0
  GI50: > 100 µM (inactive)
SNB-75
  GI50: > 100 µM (inactive)
HCC 2998
  GI50: > 100 µM (inactive)
SK-MEL-2
  GI50: > 100 µM (inactive)
OVCAR-5
  GI50: > 100 µM (inactive)
UO-31
  GI50: > 100 µM (inactive)
DLD-1
  GI50: > 100 µM (inactive)
NCI-H460
  GI50: > 100 µM (inactive)
HOP-92
  GI50: > 100 µM (inactive)
LXFL 529
  GI50: > 100 µM (inactive)
SK-MEL-28
  GI50: > 100 µM (inactive)
IGROV-1
  GI50: > 100 µM (inactive)
ACHN
  GI50: > 100 µM (inactive)
SNB-78
  GI50: > 100 µM (inactive)
CAKI-1
  GI50: > 100 µM (inactive)
SW-620
  GI50: > 100 µM (inactive)
